19 compounds from BindingDB's records for doi:10.3109/14756360902888184 (Dublin City University, 2010) can be followed below.

Residues, ends and D or L forms follow the SMILES beside them. *: point of attachment. Bz = O=C(c1ccccc1)*

This experiment deals with T1, Secreted cathepsin L 1 (Fasciola hepatica, UniProt Q7JNQ9).
T1 sequence (Q7JNQ9 whole entry): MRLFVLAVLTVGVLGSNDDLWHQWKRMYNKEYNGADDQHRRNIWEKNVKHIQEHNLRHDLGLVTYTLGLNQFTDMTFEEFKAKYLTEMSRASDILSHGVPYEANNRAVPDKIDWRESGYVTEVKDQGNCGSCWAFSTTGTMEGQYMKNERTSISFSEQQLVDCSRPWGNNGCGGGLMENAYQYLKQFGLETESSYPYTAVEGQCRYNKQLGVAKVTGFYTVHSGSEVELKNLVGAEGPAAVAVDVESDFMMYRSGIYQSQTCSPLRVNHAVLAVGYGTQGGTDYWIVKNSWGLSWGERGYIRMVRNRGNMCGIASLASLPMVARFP
In words: Cathepsin L Enzyme Assay. On the procedure:
The protease was activated by the addition of dithiothreitol, ethylenediaminetetraacetic acid (EDTA), and sodium acetate followed by incubation at 37°C for 2 h. Proteinase activity was measured fluorometrically using Z-Phe-Arg-NHMec as substrate. The substrate was stored as a 1 mM stock solution in dimethyl sulfoxide (DMSO). Assays were carried out using a final concentration of 10 μM substrate in 0.1 M sodium acetate containing 0.1 M dithiothreitol and […]. The enzyme and inhibitor were incubated together for 15 min at 37°C, at which stage the substrate was added. The mixture was incubated at 37°C for 30 min. The reaction was stopped by the addition of 150 μL of a 10% acetic acid solution. The amount of 7-amino-4-methylcoumarin (-NHMec) released was measured using a PerkinElmer fluorescence spectrophotometer with excitation set at 370 nm and emission at 440 nm.
`CC(C)C[C@H](NC(=O)c1c(F)c(F)c(F)c(F)c1F)C(=O)NCC#N` [N-2,3,4,5,6-pentafluorobenzoyl-L-leucine-glycine nitrile (33)]: 4.4 µM corresponded to half-maximal inhibition (IC50).

As for `CC(C)C[C@H](NC(=O)c1cc(F)c(F)c(F)c1F)C(=O)NCC#N` [N-2,3,4,5-tetrafluorobenzoyl-L-leucine-glycine nitrile (32)], 3.4 µM corresponded to half-maximal inhibition (IC50).

Take `CC(C)C[C@H](NC(=O)c1ccc(F)c(F)c1F)C(=O)NCC#N` [N-2,3,4-trifluorobenzoyl-L-leucine-glycine nitrile (29)]: the half-maximal inhibitory concentration (IC50) (usually the point on the concentration scale where inhibition reaches its midpoint) came out at 4.1 µM.

In the case of `CC(C)C[C@H](NC(=O)c1c(F)ccc(F)c1F)C(=O)NCC#N` [N-2,3,6-trifluorobenzoyl-L-leucine-glycine nitrile (28)], the IC50 is 6 µM.

Take `CC(C)C[C@H](NC(=O)c1cc(F)c(F)cc1F)C(=O)NCC#N` [N-2,4,5-trifluorobenzoyl-L-leucine-glycine nitrile]: half-maximal inhibition (IC50) was put at 4.5 µM.

In the case of `CC(C)C[C@H](NC(=O)c1ccc(F)cc1F)C(=O)NCC#N` [N-2,4-difluorobenzoyl-L-leucine-glycine nitrile (23)], the IC50 worked out at 5.5 µM.

`CC(C)C[C@H](NC(=O)c1cc(F)ccc1F)C(=O)NCC#N` [N-2,5-difluorobenzoyl-L-leucine-glycine nitrile (24)]: the IC50 was 3.1 µM.

On to `CC(C)C[C@H](NC(=O)c1c(F)cccc1F)C(=O)NCC#N` [N-2,6-difluorobenzoyl-L-leucine-glycine nitrile (25)], for which the IC50 was determined as 3.7 µM.

With `C[C@H](NC(=O)c1ccccc1F)C(=O)NCC#N` [N-2-fluorobenzoyl-L-alanine-glycine nitrile (15)], the concentration for half-maximal inhibition (IC50) came to 87.6 µM.

`C[C@H](NC(=O)c1ccccc1F)C(=O)NCCC#N` [N-2-fluorobenzoyl-L-alanine-β-alanine nitrile (19)] came in with an IC50 of more than 100 µM.

Turning to `CC(C)C[C@H](NC(=O)c1ccccc1C(F)(F)F)C(=O)NCC#N` [N-2-trifluoromethylbenzoyl-L-leucine-glycine nitrile (34)], half-maximal inhibition (IC50) required 4.1 µM.

Compound `CC(C)C[C@H](NC(=O)c1cc(F)c(F)c(F)c1)C(=O)NCC#N` [N-3,4,5-trifluorobenzoyl-L-leucine-glycine nitrile] showed an IC50 of 3.4 µM.

`CC(C)C[C@H](NC(=O)c1ccc(F)c(F)c1)C(=O)NCC#N` [N-3,4-difluorobenzoyl-L-leucine-glycine nitrile (26)]: the concentration for half-maximal inhibition (IC50) is 3.1 µM.

Compound `CC(C)C[C@H](NC(=O)c1cc(F)cc(F)c1)C(=O)NCC#N` [N-3,5-difluorobenzoyl-L-leucine-glycine nitrile (27)] showed an IC50 of 3 µM. This IC50 and that of the compound before are within 1.5-fold of each other.

Turning to `CC(C)C[C@H](NC(=O)c1cccc(C(F)(F)F)c1)C(=O)NCC#N` [N-3-trifluoromethylbenzoyl-L-leucine-glycine nitrile (35)], the half-maximal inhibitory concentration (IC50) is 9.1 µM.

On to `CC(C)C[C@H](NC(=O)c1ccc(C(F)(F)F)cc1)C(=O)NCC#N` [N-4-trifluoromethylbenzoyl-L-leucine-glycine nitrile (36)], for which the IC50 stood at 3.2 µM.

`CC(C)C[C@H](NC(=O)c1ccccc1)C(=O)NCC(=O)O` [N-benzoyl-L-leucine-glycine (37)] (Bz-Leu-Gly-OH) came in with an IC50 of 10 µM.

Regarding `C[C@H](NC(=O)c1c(F)c(F)c(F)c(F)c1F)C(=O)NCC#N` [N-pentafluorobenzoyl-L-alanine-glycine nitrile (16)], it took 68.3 µM to reach half-maximal inhibition (IC50).

The compound `C[C@H](NC(=O)c1c(F)c(F)c(F)c(F)c1F)C(=O)NCCC#N` [N-pentafluorobenzoyl-L-alanine-β-alanine nitrile (20)] showed an IC50 of more than 100 µM.
